In patent US20200390793A1, “COMPOSITIONS AND METHODS USING OLEUROPEIN OR CURCUMIN FOR MUSCLE QUALITY AND/OR MUSCLE MASS” (SOCIETE DES PRODUITS NESTLE S.A., priority 2017, published 2020):

Test system: old rats
Assay: Dietary polyphenol supplementation for 3 months in 20 months-old rats: muscle mass and muscle fiber area (immunofluorescence staining and microscopy)
Type: in vivo
Conditions: supplemented diet for 3 months, compared with control and rutin groups
Excerpt: 20 months-old rats were fed either a control diet or the same diet supplemented with curcumin or rutin or oleuropein for 3 months. CON=control diet, RUT=control diet with rutin, OLE=control diet with oleuropein and CUR=control diet with curcumin. Old rats are a good model to assess the effect of nutritional intervention in age related muscle decline. With this model, it can be observed as in human a decrease in muscle mass and function and a change in muscle quality with age. The objective of the study was to determine the effects of curcumin, oleuropein and rutin on muscle quality in old rats and the association with muscle mass. 20 months-old rats have been divided in four groups and received a complete diet supplemented with either curcumin (CUR), oleuropein (OLE) or rutin (RUT) for 3 months. A control group (CON) received cellulose instead of polyphenols. Fiber type was analyzed in muscle by immunofluorescence staining and microscopy. Exact Wilcoxon test associated with Hodges-Lehmann to estimate the difference between groups and Kolmogorov-Smirnov test to assess the difference for the distribution have been performed for statistical analysis.

## COc1cc(/C=C/C(=O)CC(=O)/C=C/c2ccc(O)c(OC)c2)ccc1O [CUR, curcumin]
  amount of small fibers area (percentage of cells with an area below 700 μm^2, FIG. 3B): lower
  fiber crossectionnal area (FIG. 3A): higher
  muscle mass: higher
